Results as given in patent US7521065B2, “Compositions for the treatment and prevention of cancer” (priority 2001, dated 2009).

Columns and labels:
[1] = system: lesion diagnosed as precancerous; test: Impregnated adhesive bandage on precancerous lesion, case report Example IV; format: in vivo, human; settings: adhesive bandage impregnated with compound; person
Excerpt: A person developed a lesion diagnosed as precancerous on the upper part of their back.

[2] = system: normal embryonic liver or lung cells; settings: added to the growth media; cited from earlier work
[3] = system: metastatic cutaneous and subcutaneous lesions and affected lymph nodes (breast cancer); test: Topical treatment of breast cancer metastases, case report Example VI; format: in vivo, human
Excerpt: In May 1998 a tumor was diagnosed in the left breast of a […] which had been treated for cancer of the right breast in 1974 by mastectomy, axillar resection, chemotherapy with cytoxan, metothrexate and 5-fluorouracil, and ovariectomy. In May 1999 they presented with numerous skin metastases on their upper torso and lymph node involvement. The patient underwent various therapies in Europe, which included chemotherapy, immunotherapy and hyperthermia, but numerous metastatic cutaneous and subcutaneous metastatic lesions remained on their chest, in the mastectomy scar, in the left axilla and on their back. […] As a precaution they are applying a lotion containing 0.2% solution of di-n-hexyl diselenide in jojoba oil onto areas of their skin once every two weeks.

[4] = system: irregular melanotic spot on right hand; test: Topical treatment of a melanotic spot, case report Example II; format: in vivo, human; settings: 10% solution in 1:1 n-decane/n-dodecane, once every day for one week, person
Excerpt: A subject presented with a small irregular melanotic spot of approximately 3 mm diameter on their right hand which the subject had since birth but which in recent years had increased in size and became unsymmetrical. […] New skin growing over the lesion closed it without a scar.

[5] = system: inoperable cancer of the rectum; test: Suppository treatment of rectal cancer, case report Example VIII; format: in vivo, human; settings: suppositories containing 2% in cocoa butter, daily for 4 weeks
Description: A person was diagnosed with inoperable cancer of the rectum in 1998 and was offered radiation therapy, which they refused. A colostomy was performed in the fall of 1998. They applied suppositories containing 2% di-n-hexyl diselenide in cocoa butter daily into their rectum for a period of 4 weeks.

[6] = system: skin lesion with all characteristics of a superficially spreading melanoma; test: Topical treatment of a skin lesion, case report Example I; format: in vivo, human; settings: 10% solution in n-decane, twice a day for 3 days, person, lesion 0.8 cm
Excerpt: A subject presented with a skin lesion of 0.8 cm diameter on their right upper chest.

[7] = system: small lump on breast; test: Cream applied onto breasts, case report Example V; format: in vivo, human; settings: 0.2% in moisturizing cream, once a week; person
Excerpt: A person with a small lump on their breast was told that they were at risk of developing breast cancer. They applied onto their breasts once a week a cream containing 0.2% di-n-hexyl diselenide in a moisturizing cream of conventional composition. […] They presently continue to apply the selenium composition once a week as a precautionary measure.

[8] = Excerpt: The therapeutic efficacy of the dialkyl diselenides of these compositions depends on (1) the length of the alkyl residue R, and (2) the composition of the inert carrier as these determine the degree to which they can penetrate through the skin. […] Increasing the average alkyl chain length beyond n-hexyl causes them to become less skin penetrating and more suitable for the treatment of superficial cancerous lesions. Shortening the chain length below n-hexyl increases the volatility of these compounds. This reduces their therapeutic efficacy as it causes them to evaporate when brought onto the skin.
Selection of the appropriate alkyl residues R in these compounds is important as it determines their ability to penetrate the skin. Preferred are dialkyl diselenides with linear, medium-length straight alkyl residues of at least 6 and not exceeding 8 carbon atoms.

[9] = system: high nuclear grade intraductal carcinoma of the right breast; test: Topical treatment of breast carcinoma, case report Example VII; format: in vivo, human
Excerpt: A person was diagnosed in July 1999 with a high nuclear grade intraductal carcinoma of the right breast. The tumor consisted of a hard mass in the lower left quadrant of the right breast of 3 cm diameter. In November 1999, a 6% di n-hexyl diselenide in a 1:1 mixture of n-decane and jojoba oil was applied onto the affected breast once per day. […] Status Jan. […] Status April 2001: Unchanged.

[10] = system: squamous carcinoma on nose; test: Topical cream treatment of squamous carcinoma, case report Example III; format: in vivo, human; settings: cream containing 6%, twice per day for 5 days; person
[11] = system: several human cancer cell lines; settings: cell cultures; cited from earlier work

With `CCCCCCCC[Se][Se]CCCCCCCC` [di-n-octyl diselenide] the “outcome of precancerous lesion” value [1] was “caused the lesion to dry out and drop off without a scar within 3 weeks”.

For `O=[Se](O)O` [sodium selenite], the “effect on normal cells” value [2] is listed as “without affecting”.

For `CCCCCC[SeH]` [n-hexyl selenol], the “outcome of recurrences on chest and metastases on back” value ([3]; 10% solution in n-decane) was “effectively controlled” and the “follow-up after treatment of recurrences” value ([3]; after 10% solution in n-decane) was “remained free of obvious signs of cancer for one year”.

For `CCCCCC[Se][Se]CCCCCC` [di-n-hexyl diselenide], the “outcome of metastatic lesions and affected lymph nodes” value ([3]; 5% in n-decane) was “caused their disappearance within two weeks”, the follow-up after treatment ([3]; after 5% in n-decane) was “remained free of cancer for two years” and the “outcome of melanotic spot” value [4] was “caused the affected skin to turn brittle and to fall off”. For the same molecule, the “patient status during the following 2 years” value [5] was “their status has remained stable, they gained weight, and was able to work”, the “tumor mass by X-ray and sonographic examinations” value [5] was “the tumor mass had ceased to grow” and the “outcome of skin lesion” value [6] was “caused a layer of dead cells to be formed which dropped off after 4 days without leaving a scar”. For the same molecule, the “outcome of breast lump” value [7] was “lump in their breast disappeared over a period of two months”, the skin penetration properties [8] was “excellent skin penetration properties” and the “outcome of breast mass” value ([9]; 6% in 1:1 n-decane/jojoba oil, once per day, breast mass 3 cm diameter) was “Over a period of 4 weeks the breast mass shrunk and ultimately disappeared”. For the same molecule, the “status by ultrasonic examination” value ([9]; Status Jan. 8, 2000, unchanged April 2001) was “No breast mass detectable”.

For `CCCCCCC[Se][Se]CCCCCCC` [di-n-heptyl diselenide], the “outcome of squamous carcinoma lesion” value [10] is listed as “disappearance of the lesion” and the “growth of cancer cell lines” value [11] is listed as “inhibit the growth”.
